# Measured values: patent US20240066138A1, “ANTIBODY-DRUG CONJUGATES, PHARMACEUTICAL COMPOSITIONS, AND THERAPEUTIC APPLICATIONS” (priority 2020, published 2024)
# Read-outs that look alike come from different tables or passages of the source. Numbered stars: 1 amine (or outer) side, 2 acyl side, 3 side chain; on linkers, the order of the positions; unused ones are H or OH. Square brackets hold non-standard residues; d marks the D form. Peptide text beside a SMILES is read from it. * marks the point of attachment. Exatecan = CC[C@@]1(O)C(=O)OCc2c1cc1n(c2=O)Cc2c-1nc1cc(F)c(C)c3c1c2[C@@H](N*)CC3; Hexanoyl(6-maleimido) = O=C1C=CC(=O)N1CCCCCC(=O)*; NHCH2OCH2CO = O=C(COCN[*:1])[*:2]
# How the values were obtained:
# Experiment in all cases: Cell viability assay (CELLCOUNTING-LITE)
# Assay type in all cases: cell-based
# A375 = system: A375
# Method: (§1) Cancerous cells (5,000/well) were seeded in a culture media in a 96-well flat-bottom plate. A compound was prepared by a 3-fold serial dilution and added into each cell solutions. The cells were incubated for 4 or 5 days at 37° C. under 5% CO2. CELLCOUNTING-LITE was added to each well, mixed, and incubated for 10 min at room temperature. The solution in each cell was transferred to a 96-well white opaque plate for reading.
# A431 = system: A431
# Method: as §1
# ASPC-1 = system: ASPC-1
# Method: as §1
# H226 = system: H226
# Method: as §1
# H322 = system: H322
# Method: as §1
# HT29 = system: HT29
# Method: as §1
# Hut78 = system: Hut78
# Method: as §1
# Jurkat = system: Jurkat
# Method: as §1
# KB = system: KB
# Method: as §1
# MCF7 = system: MCF7
# Method: as §1
# MV4; 11 = system: MV4; 11
# Method: as §1
# N87 = system: N87
# Method: as §1
# RS4; 11 = system: RS4; 11
# Method: as §1
# Raji = system: Raji
# Method: as §1
# Ramos = system: Ramos
# Method: as §1
# Skov-3 = system: Skov-3
# Method: as §1
# T47D = system: T47D
# Method: as §1
# [1] = N87 cells, incubated for 4 or 5 days, Table 1, read-out: IC50
Compound,"IC50 (A375; Homo sapiens, A-375) [nM]","IC50 (A431; Homo sapiens, A-431) [nM]","IC50 (ASPC-1; Homo sapiens, ASPC1) [nM]","IC50 (H226; Homo sapiens, NCI-H226) [nM]",IC50 (H322; NCI-H322) [nM],"IC50 (HT29; Homo sapiens, HT-29) [nM]","IC50 (Hut78; Homo sapiens, HuT78) [nM]","IC50 (Jurkat; Homo sapiens, Jurkat) [nM]","IC50 (KB; Homo sapiens, KB) [nM]","IC50 (MCF7; Homo sapiens, MCF7) [nM]","IC50 (MV4; 11; Homo sapiens, MV4-11) [nM]",IC50 (N87) [nM],"IC50 (RS4; 11; Homo sapiens, RS4-11) [nM]","IC50 (Raji; Homo sapiens, Raji) [nM]","IC50 (Ramos; Homo sapiens, Ramos) [nM]","IC50 (Skov-3; Homo sapiens, SK-OV-3) [nM]","IC50 (T47D; Homo sapiens, T47D) [nM]",IC50 (N87; [1]) [nM],other results
"CC[C@@]1(O)C(=O)OCc2c1cc1n(c2=O)Cc2c-1nc1cc(F)c(C)cc1c2C=NOCC(C)CNC(=O)CO (mixture of isomers) [Compound B3, N-(3-((((E/Z)—((S)-4-Ethyl-8-fluoro-4-hydroxy-9-methyl-3,14-dioxo-3,4,12,14-tetrahydro-1H-pyrano[3′,4′:6,7]indolizino[1,2-b]quinolin-11-yl)methylene)amino)oxy)-2-methyl-propyl)-2-hydroxyacetamide]",5.9,10,25,401,3.9,13,7,1.2,18,21,10,7,0.73,0.32,7.2,3.4,1.3,–,–
"CC[C@@]1(O)C(=O)OCc2c1cc1n(c2=O)Cc2c-1nc1cc(F)c(C)cc1c2C=NOCCNC(=O)CO [Compound B1, (S,E/Z)—N-(2-((((4-Ethyl-8-fluoro-4-hydroxy-9-methyl-3,14-dioxo-3,4,12,14-tetrahydro-1H-pyrano[3′,4′:6,7]indolizino[1,2-b]quinolin-11-yl)methylene)amino)oxy)ethyl)-2-hydroxyacetamide]",9.4,18,54,153,12,28,11,3,31,19,18,11,1.1,0.45,7.8,9.8,2.8,–,–
"CC[C@@]1(O)C(=O)OCc2c1cc1n(c2=O)Cc2c-1nc1cc(F)c(C)cc1c2C=NOCCCNC(=O)CO [Compound B2, (S,E/Z)—N-(3-((((4-ethyl-8-fluoro-4-hydroxy-9-methyl-3,14-dioxo-3,4,12,14-tetrahydro-1H-pyrano[3′,4′:6,7]indolizino[1,2-b]quinolin-11-yl)methylene)amino)oxy)propyl)-2-hydroxyacetamide]",–,–,–,–,–,–,–,–,–,–,–,–,–,–,–,–,–,9.1,"IC50 (A375; Homo sapiens, A-375, A375 cells, incubated for 4 or 5 days, Table 1, read-out: IC50): 6.9 nM; IC50 (A431; Homo sapiens, A-431, A431 cells, incubated for 4 or 5 days, Table 1, read-out: IC50): 9.8 nM; IC50 (ASPC-1; Homo sapiens, ASPC1, ASPC-1 cells, incubated for 4 or 5 days, Table 1, read-out: IC50): 40 nM; IC50 (H226; Homo sapiens, NCI-H226, H226 cells, incubated for 4 or 5 days, Table 1, read-out: IC50): 113 nM; IC50 (H322; NCI-H322, H322 cells, incubated for 4 or 5 days, Table 1, read-out: IC50): 12 nM; IC50 (HT29; Homo sapiens, HT-29, HT29 cells, incubated for 4 or 5 days, Table 1, read-out: IC50): 16 nM; IC50 (Hut78; Homo sapiens, Hut78 cells, incubated for 4 or 5 days, Table 1, read-out: IC50): 9.1 nM; IC50 (Jurkat; Homo sapiens, Jurkat cells, incubated for 4 or 5 days, Table 1, read-out: IC50): 2.1 nM; IC50 (KB; Homo sapiens, KB cells, incubated for 4 or 5 days, Table 1, read-out: IC50): 19 nM; IC50 (MCF7; Homo sapiens, MCF7 cells, incubated for 4 or 5 days, Table 1, read-out: IC50): 9.2 nM; IC50 (MV4; 11; Homo sapiens, MV4, 11 cells, incubated for 4 or 5 days, Table 1, read-out: IC50): 14 nM; IC50 (RS4; 11; Homo sapiens, RS4, 11 cells, incubated for 4 or 5 days, Table 1, read-out: IC50): 0.88 nM; IC50 (Raji; Homo sapiens, Raji cells, incubated for 4 or 5 days, Table 1, read-out: IC50): 0.58 nM; IC50 (Ramos; Homo sapiens, Ramos cells, incubated for 4 or 5 days, Table 1, read-out: IC50): 6.6 nM; IC50 (Skov-3; Homo sapiens, SK-OV-3, Skov-3 cells, incubated for 4 or 5 days, Table 1, read-out: IC50): 11 nM; IC50 (T47D; Homo sapiens, T47D cells, incubated for 4 or 5 days, Table 1, read-out: IC50): 2.4 nM"
"CC[C@@]1(O)C(=O)OCc2c1cc1n(c2=O)Cc2c-1nc1cc(F)c(C)c3c1c2[C@@H](NC(=O)COCNC(=O)CNC(=O)[C@H](Cc1ccccc1)NC(=O)CNC(=O)CNC(=O)CCCCCN1C(=O)C=CC1=O)CC3 [Deruxtecan, reference compound] ({Hexanoyl(6-maleimido)}-GGFG[NHCH2OCH2CO]-Exatecan)",–,–,–,–,–,–,–,–,–,–,–,–,–,–,–,–,–,9.9,"IC50 (A375; A375 cells, incubated for 4 or 5 days, Table 1, read-out: IC50): 3.6 nM; IC50 (A431; A431 cells, incubated for 4 or 5 days, Table 1, read-out: IC50): 7.7 nM; IC50 (ASPC-1; ASPC-1 cells, incubated for 4 or 5 days, Table 1, read-out: IC50): 29 nM; IC50 (H226; H226 cells, incubated for 4 or 5 days, Table 1, read-out: IC50): 388 nM; IC50 (H322; H322 cells, incubated for 4 or 5 days, Table 1, read-out: IC50): 8.2 nM; IC50 (HT29; HT29 cells, incubated for 4 or 5 days, Table 1, read-out: IC50): 13 nM; IC50 (Hut78; Hut78 cells, incubated for 4 or 5 days, Table 1, read-out: IC50): 9.9 nM; IC50 (Jurkat; Jurkat cells, incubated for 4 or 5 days, Table 1, read-out: IC50): 2.3 nM; IC50 (KB; KB cells, incubated for 4 or 5 days, Table 1, read-out: IC50): 7.2 nM; IC50 (MCF7; MCF7 cells, incubated for 4 or 5 days, Table 1, read-out: IC50): 5.7 nM; IC50 (MV4; 11; MV4, 11 cells, incubated for 4 or 5 days, Table 1, read-out: IC50): 6.9 nM; IC50 (RS4; 11; RS4, 11 cells, incubated for 4 or 5 days, Table 1, read-out: IC50): 0.65 nM; IC50 (Raji; Raji cells, incubated for 4 or 5 days, Table 1, read-out: IC50): 0.42 nM; IC50 (Ramos; Ramos cells, incubated for 4 or 5 days, Table 1, read-out: IC50): 3.8 nM; IC50 (Skov-3; Skov-3 cells, incubated for 4 or 5 days, Table 1, read-out: IC50): 9.8 nM; IC50 (T47D; T47D cells, incubated for 4 or 5 days, Table 1, read-out: IC50): 1.9 nM"
